Source: patent US20150119363A1, “METHODS OF TREATING BACTERIAL INFECTIONS” (Rampex Pharmaceuticals, Inc., priority 2012, published 2015)
Counter-ions that a name gives are not always drawn.

Tests used:
[1] = tested on: E. coli EC1061 (NDM-1 CMY-6); assay: Aztreonam/Tigemonam MIC at various concentrations of BLI; assay type: cell-based; details: Escherichia coli, read-out: Aztreonam MIC (μg/ml) in the presence of BLI
Protocol: MIC values for each bacterial strain were measured for each antimicrobial compound at various concentrations of each BLI. […]

[2] = tested on: K. pneumoniae KP1081 (NDM-1, CMY-6, SHV-11, CTX-M-15, TEM-1); assay: as above; assay type: cell-based; details: Klebsiella pneumoniae, read-out: Aztreonam MIC (μg/ml) in the presence of BLI
Protocol: MIC values for each bacterial strain were measured for each antimicrobial compound at various concentrations of each BLI.

[3] = tested on: Klebsiella pneumoniae KP1004 (KPC-2); assay: Checkerboard assay, biapenem potentiation (MPC8); assay type: cell-based; details: concentration to reduce biapenem MIC 8-fold
Protocol: The potency and spectrum of β-lactamase inhibitors was determined by assessing their antibiotic potentiation activity.
The potentiation effect is observed by the reduction of the minimum inhibitory concentration of β-lactam antibiotics in the presence of β-lactamase inhibitors (BLIs). […] Methods for Dilution of Antimicrobial Susceptibility Tests for Bacteria That Grow Aerobically—Eighth Edition; Approved Standard. CLSI Document M07-A8, 2009). In this assay, multiple dilutions of two drugs, namely BLI and β-lactam (biapenem), are being tested, alone and in combination, at concentrations equal to, above and below their respective minimal inhibitory concentrations (MICs). BLIs are solubilized in 10% DMSO at 10 mg/mL. Stock solutions are further diluted, according to the needs of a particular assay, in Mueller Hinton Broth (MHB). Stock solution can be stored at −80° C.
The checkerboard (CB) assay is performed in microtiter plates. Biapenem is diluted in the x axis, each column containing a single concentration of antibiotic. BLIs are diluted in the y axis, each row containing an equal concentration of BLI. The result of these manipulations is that each well of the microtiter plate contains a unique combination of concentrations of the two agents. The assay is performed in MHB with a final bacterial inoculum of 5×10^5 CFU/mL (from an early-log phase culture). Microtiter plates are incubated during 20 h at 35° C. and are read using a microtiter plate reader (Molecular Devices) at 650 nm as well as visual observation using a microtiter plate reading mirror.
Biapenem is a carbapenem β-lactam; only selected β-lactamases confer resistance to this class of antibiotics. Among them are serine carbapemenases that belong to class A and class D. Biapenem potentiation is studied in strains expressing various carbapenemases from these classes using CB assays. […] Cyclic boronic acid derivatives were capable of reducing biapenem MICs up to 1000-fold (Table 3).

[4] = target: T1, KPC-3 (Escherichia coli EC1007 lysate) (Klebsiella pneumoniae, UniProt Q9F663, H272Y); assay: Inhibition of biapenem hydrolysis by bacterial lysate; assay type: biochemical
T1 construct: Lysates were prepared from bacteria expressing various β-lactamases as a source of enzymes; endogenous in cells; host or cells: Escherichia coli strain EC1007 (freeze-thaw lysate supernatant)
Protocol: (§1) The activity of β-lactamase inhibitors to inhibit hydrolysis of biapenem was studied. Lysates were prepared from bacteria expressing various β-lactamases as a source of enzymes. Bacterial lysates were prepared as follows. A single colony from the fresh overnight plate was transferred to 5 mL of LB broth and grown to OD600=0.6-0.8. Next, this culture was transferred to 500 mL of LB and grown to OD600=0.7-0.9. Cells were pelleted by centrifugation at 5000 RPM (JA-14 rotor) for 15 minutes at room temperature. The pellet was resuspended in 10 mL of PBS. Five freeze-thaw cycles by putting cells at −20° C. and thawing them at the room temperature were next applied. After the last thaw step cells were spun down at 18K for 30 minutes and the supernatant was collected. This lysate was stored at −20° C.
(§2) Next, the activity of bacterial lysates was optimized for biapenem cleavage as follows. 50 μl of buffer A (50 mM Sodium Phosphate pH=7; 0.5% glucose, 1 mM MgCl2) was added to each well of 96-well UV-transparent plate. 50 μl of lysate was titrated vertically in 96-well plate column to generate 2-fold lysate dilutions. 100 μl of buffer A was added to each well, placed in plate reader at 37° C. and incubated for 15 minutes. 50 μl of 50 μg/mL solutions of biapenem in buffer A (pre-incubated at 37° C. for 15 minutes) were added to each well. Hydrolysis of biapenem was measured at 296 nm. This experiment was used to determine the optimal lysate dilution which produced a linear curve of relative UV signal that decreased to approximately OD=0.3-0.5 over 1 hour.
(§3) Finally, the potency of cyclic boronic acid derivative to inhibit the cleavage of biapenem cleavage by bacterial lysates was determined. 100 μl of buffer A (50 mM Sodium Phosphate pH=7; 0.5% glucose, 1 mM MgCl2) was added to each well of 96-well UV-transparent plate. 50 μl of 6× cyclic boronic acid derivative solution in buffer A was titrated vertically in 96-well plate column to generate 3-fold dilutions. 50 μl of diluted lysate in buffer A (optimal dilution is determined in experiment above) was added, and the plate was incubated in the plate reader at 37° C. for 15 minutes. 50 μl of 50 μg/mL solution of biapenem in buffer A (pre-incubated at 37° C. for 15 minutes) were next added to each well and hydrolysis of biapenem was recorded at 296 nm. EC50 of inhibition was determined by plotting the rate of biapenem cleavage vs. cyclic boronic acid derivative concentration.

[5] = target: T2, SME-2 (Serratia marcescens SM1000 lysate) (Serratia marcescens, UniProt P52682); assay: as above; assay type: biochemical; details: read-out: IC50 (μg/mL) of inhibition of biapenem hydrolysis; SM1000 SME-2 lysate
T2 construct: Lysates were prepared from bacteria expressing various β-lactamases as a source of enzymes
Protocol: as §1, §2, §3

[6] = tested on: KP1004 KPC-2; assay: Dose titration biapenem potentiation assay (MPC1); assay type: cell-based, Klebsiella pneumoniae; details: biapenem 1 μg/mL
Protocol: (§4) The potency and spectrum of β-lactamase inhibitors is also determined by assessing their biapenem potentiation activity in a dose titration potentiation assay using strains expressing serine carbapemenases (such as KPC). The potentiation effect is observed as the ability of BLI compounds to inhibit growth in the presence of sub-inhibitory concentration of biapenem. […] Biapenem is present in the test medium at 1 μg/mL. Compounds tested at the highest concentration of 40 μg/mL. […] Table 5 summarizes BLI potency of biapenem potentiation (MPC1). Biapenem MIC for each strain is also shown.

[7] = tested on: KP1008 KPC-2; assay: Dose titration biapenem potentiation assay (MPC1); assay type: cell-based, Klebsiella pneumoniae; details: biapenem 1 μg/mL
Protocol: as §4

[8] = tested on: EC1007 KPC-3; assay: Dose titration biapenem potentiation assay (MPC1); assay type: cell-based, Escherichia coli; details: biapenem 1 μg/mL
Protocol: as §4

[9] = tested on: ECL1004 NMC-A; assay: Dose titration biapenem potentiation assay (MPC1); assay type: cell-based, Enterobacter cloacae; details: biapenem 1 μg/mL
Protocol: as §4

## C[C@H]1[C@H](NC(=O)/C(=N\OC(C)(C)C(=O)O)c2csc(N)n2)C(=O)N1S(=O)(=O)O [Aztreonam, reference compound]
[1]
  MIC: 16 µg/mL
[2]
  MIC: 256 µg/mL

## O=C(O)CC1CC[C@H](NC(=O)Cc2ccccc2)B(O)O1 (stereo partly drawn) [Compound 2, 2-((3R)-2-hydroxy-3-(2-phenylacetamido)-1,2-oxaborinan-6-yl)acetic acid]
[3]
  MPC8: X (X = MPC8 of less than 0.16 μg/mL.)

## N[C@H]1CCC(CC(=O)O)OB1O (stereo partly drawn) [Compound 7, 2-((3R)-3-amino-2-hydroxy-1,2-oxaborinan-6-yl)acetic acid hydrochloride]
[4]
  IC50: > 5.78 µM
[5]
  IC50: > 5.78 µM

## O=C(O)C[C@@H]1CC[C@H](NC(=O)c2ccc(Cn3cnnn3)cc2)B(O)O1 [Compound 56, 2-((3R,6S)-3-(4-((1H-tetrazol-1-yl)methyl)benzamido)-2-hydroxy-1,2-oxaborinan-6-yl)acetic acid]
[6]
  BPM MPC1 KP1004 KPC-2: X (X = MPC1 of less than 1 μg/mL.)
[7]
  BPM MPC1 KP1008 KPC-2: X (X = MPC1 of less than 1 μg/mL.)
[8]
  BPM MPC1 EC1007 KPC-3: X (X = MPC1 of less than 1 μg/mL.)
[9]
  BPM MPC1 ECL1004 NMC-A: X (X = MPC1 of less than 1 μg/mL.)

## O=C(O)C[C@@H]1CC[C@H](NC(=O)Cc2ccccn2)B(O)O1 [Compound 57, 2-((3R,6S)-2-hydroxy-3-(2-(pyridin-2-yl)acetamido)-1,2-oxaborinan-6-yl)acetic acid]
[6]
  BPM MPC1 KP1004 KPC-2: X (X = MPC1 of less than 1 μg/mL.)
[7]
  BPM MPC1 KP1008 KPC-2: X (X = MPC1 of less than 1 μg/mL.)
[8]
  BPM MPC1 EC1007 KPC-3: X (X = MPC1 of less than 1 μg/mL.)
[9]
  BPM MPC1 ECL1004 NMC-A: X (X = MPC1 of less than 1 μg/mL.)

## C[C@]1(Cn2ccnn2)[C@H](C(=O)N[C@H]2CC[C@@H](CC(=O)O)OB2O)N2C(=O)C[C@H]2S1(=O)=O [Compound 59, 2-[(3R,6S)-2-hydroxy-3-[(2S,3S,5R)-3-methyl-4,4,7-trioxo-3-(1H-1,2,3-triazol-1-ylmethyl)-4λ^6-thia-1-azabicyclo[3.2.0]heptane-2-amido]-1,2-oxaborinan-6-yl]acetic acid]
[6]
  BPM MPC1 KP1004 KPC-2: Y (Y = MPC1 of 1 μg/mL to 5 μg/mL.)
[7]
  BPM MPC1 KP1008 KPC-2: X (X = MPC1 of less than 1 μg/mL.)
[8]
  BPM MPC1 EC1007 KPC-3: X (X = MPC1 of less than 1 μg/mL.)
[9]
  BPM MPC1 ECL1004 NMC-A: X (X = MPC1 of less than 1 μg/mL.)

## O=C(O)C[C@@H]1CC[C@H](NC(=O)CCc2nnc(-c3ccccc3)o2)B(O)O1 [Compound 60, 2-((3R,6S)-2-hydroxy-3-(3-(5-phenyl-1,3,4-oxadiazol-2-yl)propanamido)-1,2-oxaborinan-6-yl)acetic acid]
[6]
  BPM MPC1 KP1004 KPC-2: X (X = MPC1 of less than 1 μg/mL.)
[7]
  BPM MPC1 KP1008 KPC-2: X (X = MPC1 of less than 1 μg/mL.)
[8]
  BPM MPC1 EC1007 KPC-3: X (X = MPC1 of less than 1 μg/mL.)
[9]
  BPM MPC1 ECL1004 NMC-A: X (X = MPC1 of less than 1 μg/mL.)

## Nc1nc(/C(=N/OCc2cc(=O)c(O)cn2O)C(=O)N[C@H]2CC[C@@H](CC(=O)O)OB2O)cs1 [Compound 62, 2-((3R)-3-((Z)-2-(2-aminothiazol-4-yl)-2-((1,5-dihydroxy-4-oxo-1,4-dihydropyridin-2-yl)methoxyimino)acetamido)-2-hydroxy-1,2-oxaborinan-6-yl)acetic acid]
[6]
  BPM MPC1 KP1004 KPC-2: X (X = MPC1 of less than 1 μg/mL.)
[7]
  BPM MPC1 KP1008 KPC-2: X (X = MPC1 of less than 1 μg/mL.)
[8]
  BPM MPC1 EC1007 KPC-3: X (X = MPC1 of less than 1 μg/mL.)
[9]
  BPM MPC1 ECL1004 NMC-A: X (X = MPC1 of less than 1 μg/mL.)

## O=C(O)CC1CCC[C@H](NC(=O)Cc2cccs2)B(O)O1 (stereo partly drawn) [Compound 63, 2-((3R)-2-hydroxy-3-(2-(thiophen-2-yl)acetamido)-1,2-oxaborepan-7-yl)acetic acid]
[6]
  BPM MPC1 KP1004 KPC-2: Y (Y = MPC1 of 1 μg/mL to 5 μg/mL.)
[7]
  BPM MPC1 KP1008 KPC-2: X (X = MPC1 of less than 1 μg/mL.)
[8]
  BPM MPC1 EC1007 KPC-3: Y (Y = MPC1 of 1 μg/mL to 5 μg/mL.)
[9]
  BPM MPC1 ECL1004 NMC-A: Y (Y = MPC1 of 1 μg/mL to 5 μg/mL.)

## O=C(O)CC1C=CC[C@H](NC(=O)Cc2cccs2)B(O)O1 (stereo partly drawn) [Compound 64, 2-((3R)-2-hydroxy-3-(2-(thiophen-2-yl)acetamido)-2,3,4,7-tetrahydro-1,2-oxaborepin-7-yl)acetic acid]
[6]
  BPM MPC1 KP1004 KPC-2: Y (Y = MPC1 of 1 μg/mL to 5 μg/mL.)
[7]
  BPM MPC1 KP1008 KPC-2: X (X = MPC1 of less than 1 μg/mL.)
[8]
  BPM MPC1 EC1007 KPC-3: X (X = MPC1 of less than 1 μg/mL.)
[9]
  BPM MPC1 ECL1004 NMC-A: X (X = MPC1 of less than 1 μg/mL.)

## CCOC(=O)C[C@@H]1CC[C@H](NC(=O)Cc2cccs2)B(O)O1 [Compound 65, ethyl 2-((3R,6S)-2-hydroxy-3-(2-(thiophen-2-yl)acetamido)-1,2-oxaborinan-6-yl)acetate]
[6]
  BPM MPC1 KP1004 KPC-2: Y (Y = MPC1 of 1 μg/mL to 5 μg/mL.)
[7]
  BPM MPC1 KP1008 KPC-2: X (X = MPC1 of less than 1 μg/mL.)
[8]
  BPM MPC1 EC1007 KPC-3: Y (Y = MPC1 of 1 μg/mL to 5 μg/mL.)
[9]
  BPM MPC1 ECL1004 NMC-A: Z (Z = MPC1 of greater than 5 μg/mL.)

## O=C(O)C[C@@H]1CC[C@H](NC(=O)Cc2cc(F)cc(F)c2)B(O)O1 [Compound 66, 2-((3R,6S)-3-(2-(3,5-difluorophenyl)acetamido)-2-hydroxy-1,2-oxaborinan-6-yl)acetic acid]
[6]
  BPM MPC1 KP1004 KPC-2: X (X = MPC1 of less than 1 μg/mL.)
[7]
  BPM MPC1 KP1008 KPC-2: X (X = MPC1 of less than 1 μg/mL.)
[8]
  BPM MPC1 EC1007 KPC-3: X (X = MPC1 of less than 1 μg/mL.)
[9]
  BPM MPC1 ECL1004 NMC-A: X (X = MPC1 of less than 1 μg/mL.)
